Like-named read-outs stand apart in the source and are kept apart here.
What was measured:
[1] = system: Wilson strain house flies; format: in vivo, Wilson strain (susceptible); settings: for Contact Synergistic Ratio, Pyrolan: LC50 pyrolan alone / LC50 with synergist
How it was run: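 Wilson strain house flies held at room temperature in glass jars coated with acetone-deposited insecticide film, alone or with synergist at 5:1 synergist:insecticide by weight.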

[2] = system: IN/WHO strain house flies; test: topical application, percent kill after 24 hours, susceptible IN/WHO strain; format: in vivo, female); settings: for percent kill after 24 hours, synergist alone: insecticide 0, synergist 1 μg/fly
How it was run: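 Insecticide plus synergist in acetone, 1.0 μl applied to the thorax of CO2-anesthetized 3-to-5-day-old female IN/WHO house flies, doses in μg/fly. Flies held 10 per dish, 3-5 dishes per treatment, with skim milk. Percent mortality scored after 24 h.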

[3] = system: polyvalent resistant (CH strain) houseflies; test: whole plant or invertebrate; format: in vivo; settings: CH strain; for percent kill after 24 hours, with Dimetilan: Dimetilan 2 + synergist 4 μg/fly; for percent kill after 24 hours, with GS 13005: GS 13005 1 + synergist 2 μg/fly; for percent kill after 24 hours, with GS 13798: GS 13798 1 + synergist 2 μg/fly; for mortality at 10 µg/fly: Musca domestica, topical, 24 h, read-out: percent kill after 24 hours, synergist alone; for mortality at 10 µg/fly / percent kill after 24 hours, synergist alone: insecticide 0, synergist 10 μg/fly; for percent kill after 24 hours, with pyrethrum: Pyrethrum 2 + synergist 4 μg/fly
Experimental: The effect of O-(2-propynyl) oximes with Dimetilan and with GS 13798 was obtained from tests on polyvalent resistant (CH strain) houseflies that had been chilled and to the dorsal region of which was applied an acetone solution of synergist and insecticide at a ratio of two to one. Duplicate tests were performed using 10 four to five-day old female houseflies per test. After dosage, the flies were put in a plastic petri dish with cotton soaked in a sugar-water solution. These doses of insecticide used without synergist caused 10-40% mortality.
In Table IX, and in the tables following it, the doses of topically applied insecticides and of synergists unless otherwise noted are expressed as micrograms per fly (μg/fly).
The effect of compounds II-C, II-D and II-E with Dimetilan and GS 13798 was determined, following the procedure of Example 5, from tests on polyvalent resistant (CH strain) houseflies. These doses of insecticide used without synergist caused 10-40% mortality.
The synergistic effect with GS 13005 of compounds I-A, I-B, I-D, I-E, I-F, I-G and I-I was determined from topical application tests to IN/WHO strain, Rutgers A strain and polyvalent CH strain houseflies using the procedures of Example 5. The percent kills of the IN/WHO strain flies after 24 hours are shown in Table XXVIII; of the Rutgers A strain, in Table XXIX; and of the polyvalent CH strain, in Table XXX. The doses of insecticide alone to the CH strain files caused 10-40% mortality.
The synergistic effect with Diazinon and GS 13005 of various of the benzyl 2-propynyl ethers identified in Tables II and IIa was determined by topical application tests on IN/WHO strain, and Rutgers A strain and polyvalent, resistant, CH strain houseflies using the procedures of Example 5. The percent kills after 24 hours of IN/WHO strain flies are shown in Table XXXI; of Rutgers A strain flies, in Table XXXII; and of CH strain flies, in Table XXXIII. The doses of insecticide alone to the CH strain flies caused 10-40% mortality.
The synergistic effect with pyrethrum of various synergist compounds was determined by topical application tests on polyvalent, resistant CH strain houseflies following the procedure of Example 5. Application of the insecticide alone caused 10-40% mortality.

[4] = synergist to insecticide 5:1 by weight
[5] = Diazinon 0.03 + synergist 0.15 μg/fly
[6] = Mobam 0.05 + synergist 0.25 μg/fly
[7] = Mobam 0.10 + synergist 0.50 μg/fly
[8] = Mobam 0.20 + synergist 1 μg/fly
[9] = Mobam 0.13 μg/fly, synergist/insecticide 0.5/1
[10] = Mobam 0.13 μg/fly, synergist/insecticide 1/1
[11] = Mobam 0.13 μg/fly, synergist/insecticide 5/1
[12] = Mobam 0.25 μg/fly, synergist/insecticide 0.5/1
[13] = Mobam 0.25 μg/fly, synergist/insecticide 1/1
[14] = Mobam 0.25 μg/fly, synergist/insecticide 2/1
[15] = Mobam 0.25 μg/fly, synergist/insecticide 5/1
[16] = Mobam 0.50 μg/fly, synergist/insecticide 0.5/1
[17] = Mobam 0.50 μg/fly, synergist/insecticide 1/1
[18] = Mobam 0.50 μg/fly, synergist/insecticide 2/1
[19] = Mobam 0.50 μg/fly, synergist/insecticide 5/1
[20] = Mobam 1.0 μg/fly, synergist/insecticide 0.5/1
[21] = Mobam 1.0 μg/fly, synergist/insecticide 1/1
[22] = Mobam 1.0 μg/fly, synergist/insecticide 2/1
[23] = Mobam 1.0 μg/fly, synergist/insecticide 5/1
[24] = Mobam 0.13 μg/fly, synergist/insecticide 2/1

C#CCON=C(C)c1ccc(Cl)cc1 [I-D]
Contact Synergistic Ratio, Pyrolan [1, 4]: 25 | Contact Synergistic Ratio, Carbaryl ([1]; in vivo): 177 | percent kill after 24 hours, with Diazinon [2, 5]: 50% | percent kill after 24 hours, with Mobam [2, 6]: 8% | percent kill after 24 hours, with Mobam [2, 7]: 20% | percent kill after 24 hours, with Mobam [2, 8]: 92% | percent kill after 24 hours, synergist alone [2]: 0% | percent kill after 24 hours, with Dimetilan [3]: 100% | percent kill after 24 hours, with GS 13005 [3]: 100% | percent kill after 24 hours, with GS 13798 [3]: 100% | mortality at 10 µg/fly [3]: 0% | percent kill after 24 hours, synergist alone [3]: 0%

C#CCON=C(C)c1ccc2ccccc2c1 [I-F]
Contact Synergistic Ratio, Pyrolan [1, 4]: 50 | Contact Synergistic Ratio, Carbaryl ([1]; in vivo): 200 | percent kill after 24 hours, with Diazinon [2, 5]: 24% | percent kill after 24 hours, with GS 13005 ([2]; GS 13005 0.10 + synergist 0.50 μg/fly): 45% | percent kill after 24 hours, with Mobam [2, 8]: 47% | percent kill after 24 hours, synergist alone [2]: 0% | percent kill after 24 hours, with Dimetilan [3]: 100% | percent kill after 24 hours, with GS 13005 [3]: 100% | mortality at 10 µg/fly [3]: 0% | percent kill after 24 hours, with pyrethrum [3]: 35% | percent kill after 24 hours, synergist alone [3]: 0%

C#CCON=Cc1cccc2ccccc12 [I-I]
percent kill after 24 hours, with GS 13005 [3]: 47% | mortality at 10 µg/fly [3]: 0% | percent kill after 24 hours, synergist alone [3]: 0%

C#CCON=Cc1ccc(Cl)cc1Cl [I-G]
percent kill after 24 hours, with Diazinon ([2]; Diazinon 0.02 + synergist 0.10 μg/fly): 40% | percent kill after 24 hours, synergist alone [2]: 0% | percent kill after 24 hours, with GS 13005 [3]: 100% | mortality at 10 µg/fly [3]: 0% | percent kill after 24 hours, with pyrethrum [3]: 47% | percent kill after 24 hours, synergist alone [3]: 0%

C#CCOCc1ccc(Cl)c(Cl)c1Cl [II-D]
Contact Synergistic Ratio, Pyrolan [1, 4]: 30 | Contact Synergistic Ratio, Carbaryl ([1]; in vivo): 200 | percent kill after 24 hours, with Diazinon [2, 5]: 40% | percent mortality 24 hours, with Mobam [2, 9]: 7% | percent mortality 24 hours, with Mobam [2, 10]: 17% | percent mortality 24 hours, with Mobam [2, 11]: 50% | percent mortality 24 hours, with Mobam [2, 12]: 30% | percent mortality 24 hours, with Mobam [2, 13]: 63% | percent mortality 24 hours, with Mobam [2, 14]: 83% | percent mortality 24 hours, with Mobam [2, 15]: 97% | percent mortality 24 hours, with Mobam [2, 16]: 57% | percent mortality 24 hours, with Mobam [2, 17]: 100% | percent mortality 24 hours, with Mobam [2, 18]: 97% | percent mortality 24 hours, with Mobam [2, 19]: 100% | percent mortality 24 hours, with Mobam [2, 20]: 97% | percent mortality 24 hours, with Mobam [2, 21]: 100% | percent mortality 24 hours, with Mobam [2, 22]: 100% | percent mortality 24 hours, with Mobam [2, 23]: 100% | percent kill after 24 hours, with Mobam [2, 6]: 10% | percent kill after 24 hours, with Mobam [2, 7]: 50% | percent kill after 24 hours, with Mobam [2, 8]: 100% | percent kill after 24 hours, synergist alone [2]: 0% | percent kill after 24 hours, with Dimetilan [3]: 100% | percent kill after 24 hours, with GS 13798 [3]: 100% | mortality at 10 µg/fly [3]: 0% | percent kill after 24 hours, with pyrethrum [3]: 30% | percent kill after 24 hours, synergist alone [3]: 0%

C#CCOCc1cc(Cl)c(Cl)cc1Cl [II-F]
Contact Synergistic Ratio, Pyrolan [1, 4]: 15 | Contact Synergistic Ratio, Carbaryl ([1]; in vivo): 150 | percent mortality 24 hours, with Mobam [2, 9]: 3% | percent mortality 24 hours, with Mobam [2, 10]: 10% | percent mortality 24 hours, with Mobam [2, 24]: 0% | percent mortality 24 hours, with Mobam [2, 11]: 23% | percent mortality 24 hours, with Mobam [2, 12]: 33% | percent mortality 24 hours, with Mobam [2, 13]: 57% | percent mortality 24 hours, with Mobam [2, 14]: 27% | percent mortality 24 hours, with Mobam [2, 15]: 73% | percent mortality 24 hours, with Mobam [2, 16]: 70% | percent mortality 24 hours, with Mobam [2, 17]: 83% | percent mortality 24 hours, with Mobam [2, 18]: 80% | percent mortality 24 hours, with Mobam [2, 19]: 97% | percent mortality 24 hours, with Mobam [2, 20]: 100% | percent mortality 24 hours, with Mobam [2, 21]: 93% | percent mortality 24 hours, with Mobam [2, 22]: 93% | percent mortality 24 hours, with Mobam [2, 23]: 100%

C#CCOCc1ccc(Cl)c(Cl)c1 [II-C]
Contact Synergistic Ratio, Carbaryl ([1]; LC50 carbaryl alone / LC50 with synergist, synergist to insecticide 5:1 by weight): 100 | Contact Synergistic Ratio, Pyrolan [1, 4]: 15 | percent kill after 24 hours, with Diazinon [2, 5]: 23% | percent kill after 24 hours, with Mobam [2, 6]: 4% | percent kill after 24 hours, with Mobam [2, 7]: 27% | percent kill after 24 hours, with Mobam [2, 8]: 99% | percent kill after 24 hours, synergist alone [2]: 0% | percent kill after 24 hours, with Dimetilan [3]: 100% | mortality at 10 µg/fly [3]: 0% | percent kill after 24 hours, synergist alone [3]: 0%

C#CCOCc1c(Cl)ccc(Cl)c1Cl [II-E]
Contact Synergistic Ratio, Pyrolan [1, 4]: 20 | Contact Synergistic Ratio, Carbaryl ([1]; in vivo): 120 | percent kill after 24 hours, with Diazinon [2, 5]: 45% | percent mortality 24 hours, with Mobam [2, 9]: 30% | percent mortality 24 hours, with Mobam [2, 10]: 27% | percent mortality 24 hours, with Mobam [2, 24]: 17% | percent mortality 24 hours, with Mobam [2, 11]: 40% | percent mortality 24 hours, with Mobam [2, 12]: 53% | percent mortality 24 hours, with Mobam [2, 13]: 77% | percent mortality 24 hours, with Mobam [2, 14]: 73% | percent mortality 24 hours, with Mobam [2, 15]: 67% | percent mortality 24 hours, with Mobam [2, 16]: 97% | percent mortality 24 hours, with Mobam [2, 17]: 97% | percent mortality 24 hours, with Mobam [2, 18]: 93% | percent mortality 24 hours, with Mobam [2, 19]: 100% | percent mortality 24 hours, with Mobam [2, 20]: 100% | percent mortality 24 hours, with Mobam [2, 21]: 100% | percent mortality 24 hours, with Mobam [2, 22]: 100% | percent mortality 24 hours, with Mobam [2, 23]: 100% | percent kill after 24 hours, with Mobam [2, 6]: 5% | percent kill after 24 hours, with Mobam [2, 7]: 33% | percent kill after 24 hours, with Mobam [2, 8]: 100% | percent kill after 24 hours, synergist alone [2]: 0% | percent kill after 24 hours, with GS 13005 [3]: 100% | percent kill after 24 hours, with GS 13798 [3]: 100% | mortality at 10 µg/fly [3]: 10% | percent kill after 24 hours, synergist alone [3]: 10%

From US3954793A, “1-(2-Propynyl)-1 H-indazole compounds” (priority 1973, dated 1976)
